row,melting point,Compound
1,141 to 142 °C,"CCCNc1nc(-c2ccc(OC)cc2)c(-c2ccncc2)s1 [Reference Example 23-290, N-propyl-[4-(4-methoxyphenyl)-5-(4-pyridyl)-1,3-thiazol-2-yl]amine]"
2,347 to 349 °C,"Cc1cc(C)cc(-c2nc(NC(=O)c3ccc(C(=O)O)cc3)sc2-c2ccncc2)c1 [Reference Example 23-337, 4-[[[4-(3,5-dimethylphenyl)-5-(4-pyridyl)-1,3-thiazol-2-yl]amino]carbonyl]benzoic acid]"
3,205 to 206 °C,"CNc1nc(-c2ccc(F)cc2)c(-c2ccncc2)s1 [Reference Example 13-69, N-methyl [4-(4-fluorophenyl)-5-(4-pyridyl)-1,3-thiazol-2-yl]amine]"
4,224 to 226 °C,"CCNC(=O)Nc1nc(-c2ccc(OC)cc2)c(-c2ccncc2)s1 [Reference Example 23-156, N-ethyl-N′-[4-(4-methoxyphenyl)-5-(4-pyridyl)-1,3-thiazol-2-yl]urea]"
5,194 to 196 °C,"Cc1ccc(-c2nc(-c3ccc(CS(=O)(=O)Cc4ccc(-c5nc(-c6ccc(C)c(C)c6)c(-c6ccncc6)s5)cc4)cc3)sc2-c2ccncc2)cc1C [Reference Example 23-328, 4-[4-(3,4-dimethylphenyl)-5-(4-pyridyl)-1,3-thiazol-2-yl]phenylmethylsulfone]"
6,161 to 163 °C,"COc1ccc(-c2nc(NC(C)C)sc2-c2ccncc2)cc1 [Reference Example 23-291, N-isopropyl-[4-(4-methoxyphenyl)-5-(4-pyridyl)-1,3-thiazol-2-yl]amine]"
7,191 to 194 °C,"O=S(=O)(Cc1ccc(-c2nc(-c3ccc(F)cc3)c(-c3ccncc3)s2)cc1)Cc1ccc(-c2nc(-c3ccc(F)cc3)c(-c3ccncc3)s2)cc1 [Reference Example 23-313, 4-[4-(4-fluorophenyl)-5-(4-pyridyl)-1,3-thiazol-2-yl]phenylmethylsulfone]"
8,172 to 173 °C,CNc1nc(-c2ccc3c(c2)CCC3)c(-c2cccnc2)s1 [13-74]
9,256 to 258 °C,"Nc1nc(-c2cccc(Cl)c2)c(-c2ccncc2)s1 [Reference Example 23-59, [4-(3-chlorophenyl)-5-(4-pyridyl)-1,3-thiazol-2-yl]amine]"
10,161 to 164 °C,"Cc1ccc(-c2nc(-c3ccc(C[S+]([O-])Cc4ccc(-c5nc(-c6ccc(C)c(C)c6)c(-c6ccncc6)s5)cc4)cc3)sc2-c2ccncc2)cc1C [Reference Example 23-327, 4-[4-(3,4-dimethylphenyl)-5-(4-pyridyl)-1,3-thiazol-2-yl]phenylmethylsulfoxide]"
11,165 to 168 °C,"CCCCNc1nc(-c2cc(C)cc(C)c2)c(-c2ccncc2)s1 [Reference Example 23-280, N-butyl-[4-(3,5-dimethylphenyl)-5-(4-pyridyl)-1,3-thiazol-2-yl]amine]"
12,177 to 180 °C,"CCCNc1nc(-c2cc(C)cc(C)c2)c(-c2ccncc2)s1 [Reference Example 23-276, N-propyl-[4-(3,5-dimethylphenyl)-5-(4-pyridyl)-1,3-thiazol-2-yl]amine]"
13,175 to 176 °C,"CCNc1nc(-c2ccc(OC)cc2)c(-c2ccncc2)s1 [Reference Example 23-269, N-ethyl-[4-(4-methoxyphenyl)-5-(4-pyridyl)-1,3-thiazol-2-yl]amine]"
14,258 to 260 °C,"CCC(=O)Nc1nc(-c2cccc(C)c2)c(-c2ccncc2)s1 [Reference Example 23-52, N-[4-(3-methylphenyl)-5-(4-pyridyl)-1,3-thiazol-2-yl]propionamide]"
15,202 to 204 °C,"O=S(=O)(Cc1ccc(-c2nc(-c3ccc(Cl)cc3)c(-c3ccncc3)s2)cc1)Cc1ccc(-c2nc(-c3ccc(Cl)cc3)c(-c3ccncc3)s2)cc1 [Reference Example 23-314, 4-[4-(4-chlorophenyl)-5-(4-pyridyl)-1,3-thiazol-2-yl]phenylmethylsulfone]"
16,296 to 298 °C,"Cc1ccc(-c2nc(N)sc2-c2ccncc2)cc1 [Reference Example 23-62, [4-(4-methylphenyl)-5-(4-pyridyl)-1,3-thiazol-2-yl]amine]"
17,282 to 284 °C,"COc1ccc(-c2nc(N)sc2-c2ccncc2)cc1 [Reference Example 13-14, [4-(4-methoxyphenyl)-5-(4-pyridyl)-1,3-thiazol-2-yl]amine]"
18,159 to 161 °C,"Cc1ccc(-c2nc(-c3ccc(CSCc4ccc(-c5nc(-c6ccc(C)c(C)c6)c(-c6ccncc6)s5)cc4)cc3)sc2-c2ccncc2)cc1C [Reference Example 23-326, 4-[4-(3,4-dimethylphenyl)-5-(4-pyridyl)-1,3-thiazol-2-yl]phenylmethylsulfide]"
19,135 to 137 °C,"Fc1ccc(-c2nc(-c3ccccc3)sc2-c2ccncc2)cc1 [Reference Example 44-1, 4-(4-fluorophenyl)-2-phenyl-5-(4-pyridyl)-1,3-thiazole]"
20,221 to 222 °C,"COc1ccc(-c2nc(NC(=O)C(C)O)sc2-c2ccncc2)cc1 (centres unmarked) [Reference Example 23-325, 2-hydroxy-N-[4-(4-methoxyphenyl)-5-(4-pyridyl)-1,3-thiazol-2-yl]propionamide]"
21,217 to 219 °C,"COc1ccc(-c2nc(NC(=O)Nc3ccccc3)sc2-c2ccncc2)cc1 [Reference Example 23-296, N-[4-(4-methoxyphenyl)-5-(4-pyridyl)-1,3-thiazol-2-yl]-N′-phenylurea]"

row,melting point,Compound
1,290 to 293 °C,"CC(=O)Nc1nc(-c2cccc(Cl)c2)c(-c2ccncc2)s1 [Reference Example 23-49, N-[4-(3-chlorophenyl)-5-(4-pyridyl)-1,3-thiazol-2-yl]acetamide]"
2,127 to 128 °C,"COc1ccc(-c2nc(-c3ccc(SC)cc3)sc2-c2ccncc2)cc1 [Reference Example 23-300, methyl 4-[2-[4-(methylthio)phenyl]-5-(4-pyridyl)-1,3-thiazol-4-yl]phenyl ether]"
3,101 to 102 °C,"CSc1ccc(-c2nc(-c3cccc(C)c3)c(-c3ccncc3)s2)cc1 [Reference Example 44-7, methyl 4-[4-(3-methylphenyl)-5-(4-pyridyl)-1,3-thiazol-2-yl]phenylsulfide]"
4,186 to 188 °C,"Cc1cc(C)cc(-c2nc(NCc3ccccc3)sc2-c2ccncc2)c1 [Reference Example 23-281, N-benzyl-[4-(3,5-dimethylphenyl)-5-(4-pyridyl)-1,3-thiazol-2-yl]amine]"
5,295 to 297 °C,"COc1ccc(-c2nc(NC(=O)c3ccncc3)sc2-c2ccncc2)cc1 [Reference Example 23-102, N-[4-(4-methoxyphenyl)-5-(4-pyridyl)-1,3-thiazol-2-yl]isonicotinamide]"
6,350 to 353 °C,"Cc1cc(C)cc(-c2nc(NC(=O)c3cccc(C(=O)O)c3)sc2-c2ccncc2)c1 [Reference Example 23-342, 3-[[[4-(3,5-dimethylphenyl)-5-(4-pyridyl)-1,3-thiazol-2-yl]amino]carbonyl]benzoic acid]"
7,294 to 297 °C,"CC(=O)Nc1nc(-c2ccccc2)c(-c2ccncc2)s1 [Reference Example 23-71, N-[4-phenyl-5-(4-pyridyl)-1,3-thiazol-2-yl]acetamide]"
8,287 to 289 °C,"COc1ccc(-c2nc(Nc3ccccc3)sc2-c2ccncc2)cc1 [Reference Example 23-80, N-phenyl-[4-(4-methoxyphenyl)-5-(4-pyridyl)-1,3-thiazol-2-yl]amine]"
9,214 to 216 °C,"O=C(CCc1ccccc1)Nc1nc(-c2ccccc2)c(-c2ccncc2)s1 [Reference Example 23-30, 3-phenyl-N-[4-phenyl-5-(4-pyridyl)-1,3-thiazol-2-yl]propionamide]"
10,332 to 335 °C,"COc1ccc(-c2nc(NC(=O)c3ccc(C(=O)O)cc3)sc2-c2ccncc2)cc1 [Reference Example 23-299, 4-[[[4-(4-methoxyphenyl)-5-(4-pyridyl)-1,3-thiazol-2-yl]amino]carbonyl]benzoic acid]"
11,248 to 250 °C,"Nc1nc(-c2ccccc2)c(-c2ccncc2)s1 [Reference Example 13-15, [4-phenyl-5-(4-pyridyl)-1,3-thiazol-2-yl]amine]"
12,228 to 230 °C,"COc1ccc(-c2nc(NC(=O)CO)sc2-c2ccncc2)cc1 [Reference Example 23-329, 2-hydroxy-N-[4-(4-methoxyphenyl)-5-(4-pyridyl)-1,3-thiazol-2-yl]acetamide]"
13,167 to 169 °C,"Cc1cc(C)cc(-c2nc(NC(=O)Nc3ccccc3)sc2-c2ccncc2)c1 [Reference Example 23-315, N-[4-(3,5-dimethylphenyl)-5-(4-pyridyl)-1,3-thiazol-2-yl]-N′-phenylurea]"
14,191 to 192 °C,"CNc1nc(-c2ccccc2)c(-c2ccncc2)s1 [Reference Example 13-47, N-methyl [4-phenyl-5-(4-pyridyl)-1,3-thiazol-2-yl]amine]"
15,248 to 250 °C,"Cc1ccc(-c2nc(N)sc2-c2ccncc2)cc1C [Reference Example 23-125, [4-(3,4-dimethylphenyl)-5-(4-pyridyl)-1,3-thiazol-2-yl]amine]"
16,188 to 189 °C,"Cc1cccc(-c2nc(-c3ccc([S+](C)[O-])cc3)sc2-c2ccncc2)c1 (centres unmarked) [Reference Example 44-8, methyl 4-[4-(3-methylphenyl)-5-(4-pyridyl)-1,3-thiazol-2-yl]phenylsulfoxide]"
17,287 to 289 °C,"CC(=O)Nc1nc(-c2cccc(C)c2)c(-c2ccncc2)s1 [Reference Example 23-51, N-[4-(3-methylphenyl)-5-(4-pyridyl)-1,3-thiazol-2-yl]acetamide]"
18,302 to 304 °C,"Cc1cc(C)cc(-c2nc(NC(=O)c3ccncc3)sc2-c2ccncc2)c1 [Reference Example 23-200, N-[4-(3,5-dimethylphenyl)-5-(4-pyridyl)-1,3-thiazol-2-yl]isonicotinamide]"
19,289 to 290 °C,"CCC(=O)Nc1nc(-c2cccc(Cl)c2)c(-c2ccncc2)s1 [Reference Example 23-50, N-[4-(3-chlorophenyl)-5-(4-pyridyl)-1,3-thiazol-2-yl]propionamide]"
20,233 to 234 °C,"O=C(Cc1ccccc1)Nc1nc(-c2ccccc2)c(-c2ccncc2)s1 [Reference Example 23-29, 2-phenyl-N-[4-phenyl-5-(4-pyridyl)-1,3-thiazol-2-yl]acetamide]"

# Reference: patent US6962933B1, “Method for inhibiting p38 MAP kinase or TNF-α production using a 1,3-thiazole” (Takeda Pharmaceutical Company Limited, priority 1999, dated 2005)
